Measured values from patent US6313177A, “D-mannitol derivatives as HIV aspartyl protease inhibitors” (Pharmacor Inc., priority 1999, dated 2001).

Molecular target: T1, recombinant HIV-1 protease (Human immunodeficiency virus type 1 group M subtype B, UniProt P04585)
T1 construct: recombinant HIV-1 protease; purchased Bachem Bioscience
Test: Fluorometric (FRET) enzymatic assay for the inhibition constant (Ki) against the HIV protease
Type: biochemical
Conditions: not given
Source text: Enzymatic Assay for Determining the Inhibition Constant (Ki) of Synthetic Compounds Prepared Against the HIV Protease
This is a fluorometric assay based on the cleavage by protease of a substrate carrying a donor group (EDANS, excitation at 340 nm and emission at 490 nm) and an acceptor group (DABCYL) on each side of the cleavage site, interacting together through fluorescence resonance energy transfer (FRET). Cleavage of the substrate by protease stops energy exchange between the two groups, resulting in a time-dependent increase in fluorescence intensity that is linearly related to the extent of substrate hydrolysis.
The enzymatic assay is done at 30° C. in a spectrophotometer microcuvet, in a total volume of 400 μL. The apparatus used for readings is a UV-visible Cary 1 spectrophotometer made by Varian. The reaction is run first in the absence of protease inhibitors for 2 min, using 355 μL of buffer at pH 4.7 (sodium acetate 100 mM, NaCl 1 M, EDTA 1 mM, DTT 1 mM, dimethylsulfoxide 10%, and BSA 1 mg/mL), 40 μL of substrate H-2930 from Molecular Probes (final concentration 10 μM) and 5 μL of recombinant HIV-1 protease (final concentration 18.3 nM) purchased from Bachem Bioscience. Fluorescence readings at […] are taken continuously during the reaction, allowing determination of the enzyme's initial velocity (v0). At the end of the 2 min incubation, the potential inhibitor at a defined concentration in a volume of 2 μL is added to the reaction, and fluorescence readings are taken for another 2 min, allowing determination of enzyme velocity (vi) in the presence of the inhibitory compound. Several concentrations of the putative inhibitors are tested in the assay. After calculation of vo and vi, the inhibition constant (Ki) of the compound is determined using the equation of Henderson: [formula]
and [I]=inhibitor concentration, [S ]=substrate concentration, Km=Michaelis-Menten constant, Kiapp =apparent Ki
Note that the Michaelis-Menten constant of HIV protease is determined by running the assay without inhibitors, using several concentrations of substrate, and plotting the results as a Cornish-Bowden graph with the ratio substrate concentration/velocity as the ordinate and substrate concentration as the abscissa.

Question: O[C@@H]([C@H](O)[C@@H](COCc1ccc(Cl)cc1)OCc1ccccc1)[C@@H](COCc1ccc(Cl)cc1)OCc1ccccc1 [Compound 55, 1,6-di-O-(4-chlorobenzyl)-2,5-di-O-benzyl-D-mannitol] was tested. Which Ki did it give?
Answer: Its Ki is 5.2 µM.

Same assay, conditions: Table 1, benzylated D-mannitol derivatives; pH 4.7, 30° C., substrate 10 μM, protease 18.3 nM

Question: With Cc1ccc(COC[C@@H](OCc2ccccc2)[C@@H](O)[C@H](O)[C@@H](COCc2ccc(C)cc2)OCc2ccccc2)cc1 [Compound 26, 1,6-di-O-(4-methylbenzyl)-2,5-di-O-benzyl-D-mannitol] as the compound, how does the Ki read?
Answer: Its Ki is 3 µM.

Question: N#Cc1ccc(CO[C@H](COCc2ccccc2)[C@@H](O)[C@H](O)[C@@H](COCc2ccccc2)OCc2ccc(C#N)cc2)cc1 [Compound 14, 1,6-di-O-benzyl-2,5-di-O-(4-cyanobenzyl)-D-mannitol] was tested. Which Ki did it give?
Answer: Its Ki is 5.4 µM.

Question: Which Ki does the source give for NCc1ccc(CO[C@H](COCc2ccccc2)[C@@H](O)[C@H](O)[C@@H](COCc2ccccc2)OCc2ccc(CN)cc2)cc1 [Compound 46, 1,6-di-O-benzyl-2,5-di-O-(4-aminomethylbenzyl)-D-mannitol] here?
Answer: The Ki was 27 µM.

Question: For O[C@@H]([C@H](O)[C@@H](COCc1ccc(C(F)(F)F)cc1)OCc1ccc(C(F)(F)F)cc1)[C@@H](COCc1ccc(C(F)(F)F)cc1)OCc1ccc(C(F)(F)F)cc1 [Compound 11, 1,2,5,6-tetra-O-(4-trifluoromethylbenzyl)-D-mannitol], which Ki is on record?
Answer: Its Ki is greater than 5 µM.

Question: For O[C@@H]([C@H](O)[C@@H](COCc1ccccc1F)OCc1cccc(F)c1)[C@@H](COCc1ccccc1F)OCc1cccc(F)c1 [Compound 57, 1,6-di-O-(2-fluorobenzyl)-2,5-di-O-(3-fluorobenzyl)-D-mannitol], which Ki is on record?
Answer: The Ki was 1.5 µM.

Question: For Oc1ccc(COC[C@@H](OCc2ccc(F)cc2)[C@@H](O)[C@H](O)[C@@H](COCc2ccc(O)cc2)OCc2ccc(F)cc2)cc1 [Compound 4, 1,6-di-O-(4-hydroxybenzyl)-2,5-di-O-(4-fluorobenzyl)-D-mannitol], which Ki is on record?
Answer: The Ki was 0.4 µM.

Question: With COC(=O)c1ccc(CO[C@H](COCc2ccccc2)[C@@H](O)[C@H](O)[C@@H](COCc2ccccc2)OCc2ccc(C(=O)OC)cc2)cc1 [Compound 19, 1,6-di-O-benzyl-2,5-di-O-(4-carbomethoxybenzyl)-D-mannitol] as the compound, how does the Ki read?
Answer: The Ki was 8.4 µM.

Question: Which Ki does the source give for O[C@@H]([C@H](O)[C@@H](COCc1ccccc1F)OCc1ccc(F)cc1)[C@@H](COCc1ccccc1F)OCc1ccccc1 [Compound 62, 1,6-di-O-(2-fluorobenzyl)-2-O-benzyl-5-O-(4-fluorobenzyl)-D-mannitol] here?
Answer: Its Ki is 0.22 µM.

Question: With Oc1cccc(CO[C@H](COCc2ccccc2)[C@@H](O)[C@H](O)[C@@H](COCc2ccccc2)OCc2cccc(O)c2)c1 [Compound 3, 1,6-di-O-benzyl-2,5-di-O-(3-hydroxybenzyl)-D-mannitol] as the compound, how does the Ki read?
Answer: Its Ki is 6 µM.

Question: How did the Ki turn out when O[C@@H]([C@H](O)[C@@H](COCc1ccc(F)cc1)OCc1ccccc1)[C@@H](COCc1ccc(F)cc1)OCc1ccccc1 [Compound 31, 1,6-di-O-(4-fluorobenzyl)-2,5-di-O-benzyl-D-mannitol] was run?
Answer: Its Ki is 2.5 µM.

Question: With O[C@@H]([C@H](O)[C@@H](COCc1ccccc1F)OCc1ccccc1)[C@@H](COCc1ccccc1F)OCc1ccccc1 [Compound 32, 1,6-di-O-(2-fluorobenzyl)-2,5-di-O-benzyl-D-mannitol] as the compound, how does the Ki read?
Answer: Its Ki is 0.6 µM.

Question: With O=C(O)c1ccc(CO[C@H](COCc2ccccc2)[C@@H](O)[C@H](O)[C@@H](COCc2ccccc2)OCc2ccc(C(=O)O)cc2)cc1 [Compound 43, 1,6-di-O-benzyl-2,5-di-O-(4-carboxybenzyl)-D-mannitol] as the compound, how does the Ki read?
Answer: The Ki was 26 µM.

Question: For O[C@@H]([C@H](O)[C@@H](COCc1ccccc1F)OCc1ccc(F)cc1)[C@@H](COCc1ccccc1F)OCc1ccc(F)cc1 [Compound 40, 1,6-di-O-(2-fluorobenzyl)-2,5-di-O-(4-fluorobenzyl)-D-mannitol], which Ki is on record?
Answer: The Ki was 0.28 µM.

Question: COC(=O)c1ccc(COC[C@@H](OCc2ccccc2)[C@@H](O)[C@H](O)[C@@H](COCc2ccc(C(=O)OC)cc2)OCc2ccccc2)cc1 [Compound 29, 1,6-di-O-(4-carbomethoxybenzyl)-2,5-di-O-benzyl-D-mannitol] was tested. Which Ki did it give?
Answer: The Ki was 2 µM.

Question: With O=C(O)c1ccc(COC[C@@H](OCc2ccccc2)[C@@H](O)[C@H](O)[C@@H](COCc2ccc(C(=O)O)cc2)OCc2ccccc2)cc1 [Compound 51, 1,6-di-O-(4-carboxybenzyl)-2,5-di-O-benzyl-D-mannitol] as the compound, how does the Ki read?
Answer: Its Ki is 5 µM.

Question: How did the Ki turn out when Cc1ccc(COC[C@@H](OCc2ccc(C)cc2)[C@@H](O)[C@H](O)[C@@H](COCc2ccc(C)cc2)OCc2ccc(C)cc2)cc1 [Compound 50, 1,2,5,6-tetra-O-(4-methylbenzyl)-D-mannitol] was run?
Answer: The Ki was greater than 1 µM.

Question: How did the Ki turn out when O[C@@H]([C@H](O)[C@@H](COCc1ccccc1)OCc1ccc(Br)cc1)[C@@H](COCc1ccccc1)OCc1ccc(Br)cc1 [Compound 18, 1,6-di-O-benzyl, 2,5-di-O-(4-bromobenzyl)-D-mannitol] was run?
Answer: The Ki was 2.1 µM.

Question: O=Cc1ccc(CO[C@H](COCc2ccccc2)[C@@H](O)[C@H](O)[C@@H](COCc2ccccc2)OCc2ccc(C=O)cc2)cc1 [Compound 49, 1,6-di-O-benzyl-2,5-di-O-(4-formylbenzyl)-D-mannitol] was tested. Which Ki did it give?
Answer: Its Ki is 28 µM.

Same assay, conditions: Table 2, tetra-substituted D-mannitol derivatives; pH 4.7, 30° C., substrate 10 μM, protease 18.3 nM

Question: How did the Ki turn out when O[C@@H]([C@H](O)[C@@H](COCc1ccccc1)OCc1ccccn1)[C@@H](COCc1ccccc1)OCc1ccccn1 [Compound 88, 1,6-di-O-benzyl-2,5-di-O-(2-pyridylmethyl)-D-mannitol] was run?
Answer: Its Ki is 28 µM.

Question: For O[C@@H]([C@H](O)[C@@H](COCc1ccccc1)OCc1ccc2ccccc2c1)[C@@H](COCc1ccccc1)OCc1ccc2ccccc2c1 [Compound 80, 1,6-di-O-benzyl-2,5-di-O-(2-naphthylmethyl)-D-mannitol], which Ki is on record?
Answer: The Ki was greater than 1.25 µM.

Question: With O[C@@H]([C@H](O)[C@@H](COCc1ccccc1F)OCc1cccs1)[C@@H](COCc1ccccc1F)OCc1ccc(F)cc1 [Compound 97, 1,6-di-O-(2-fluorobenzyl)-2-O-(4-fluorobenzyl)-5-O-(2-thienylmethyl)-D-mannitol] as the compound, how does the Ki read?
Answer: Its Ki is 0.23 µM.

Question: For O[C@@H]([C@H](O)[C@@H](COCC=Cc1ccccc1)OCc1ccccc1)[C@@H](COCC=Cc1ccccc1)OCc1ccccc1 [Compound 94, 1,6-di-O-cinnamyl-2,5-di-O-benzyl-D-mannitol], which Ki is on record?
Answer: Its Ki is greater than 1 µM.

Question: Which Ki does the source give for O[C@@H]([C@H](O)[C@@H](COCc1ccccc1)OCC=Cc1ccccc1)[C@@H](COCc1ccccc1)OCC=Cc1ccccc1 [Compound 84, 1,6-di-O-benzyl, 2,5-di-O-cinnamyl-D-mannitol] here?
Answer: The Ki was greater than 1 µM.

Question: How did the Ki turn out when O[C@@H]([C@H](O)[C@@H](COCc1ccccc1)OCc1cccs1)[C@@H](COCc1ccccc1)OCc1ccc(F)cc1 [Compound 96, 1,6-di-O-benzyl-2-O-(4-fluorobenzyl)-5-O-(2-thienylmethyl)-D-mannitol] was run?
Answer: The Ki was 0.23 µM.

Question: O[C@@H]([C@H](O)[C@@H](COCc1ccccc1)OCC1CC1)[C@@H](COCc1ccccc1)OCC1CC1 [Compound 83, 1,6-di-O-benzyl-2,5-di-O-cyclopropylmethyl-D-mannitol] was tested. Which Ki did it give?
Answer: The Ki was 9 µM.

Same assay, conditions: Table 3, di- and tri-substituted D-mannitol derivatives; pH 4.7, 30° C., substrate 10 μM, protease 18.3 nM

Question: How did the Ki turn out when O=C(O[C@H](COCc1ccccc1)[C@@H](O)[C@H](O)[C@@H](COCc1ccccc1)OC(=O)c1ccccc1)c1ccccc1 [Compound 109, 1,6-di-O-benzyl-2,5-di-O-benzoyl-D-mannitol] was run?
Answer: Its Ki is 10 µM.

Question: With O[C@@H]([C@H](O)[C@@H](COCc1ccccc1)OCc1ccccc1)[C@H](O)COCc1ccccc1 [Compound 98, 1,2,6-tri-O-benzyl-D-mannitol] as the compound, how does the Ki read?
Answer: The Ki was 33 µM.

Question: For O=[N+]([O-])c1ccc(CO[C@H](COCc2ccccc2)[C@@H](O)[C@H](O)[C@H](O)COCc2ccccc2)cc1 [Compound 99, 1,6-di-O-benzyl-2-O-(4-nitrobenzyl)-D-mannitol], which Ki is on record?
Answer: The Ki was 45 µM.
